Assay results published in article PMC2607020, “An Unusual Helix Turn Helix Motif in the Catalytic Core of HIV-1 Integrase Binds Viral DNA and LEDGF” (PLoS ONE, 2009).
Entries after “also recorded” stand apart in the source; their conditions may differ. Like-named read-outs stand apart in the source and are kept apart here.

Assays:
[1] = system: Asp366Asn-IBD variant of LEDGF; conditions: fluorescence anisotropy; fluorescein-labeled HTHi 50 nM; pH 6.0; 5°C
Description: The wt IBD is the fragment 347–471 of LEDGF (GST removed) [33], [51], [52]. The mutant IBD is the Asp366Asn version of the former. Like the whole protein, these contain no Trp. […] The proteins were used in the “reaction buffer” containing 20 mM HEPES (pH 6.8), 10 mM MgCl2 and 10 mM DTT.
Intrinsic fluorescence quantum yield and fluorescence anisotropy studies were carried out with a Jobin-Yvon Fluoromax II instrument (HORIBA Jobin-Yvon, France) equipped with an ozone-free 150 W xenon lamp. The samples (800 µl) were placed at 5°C in thermally jacketed 1 cm×0.5 cm quartz cells. At least ten measurements for each titration point were recorded with an integration time of 5 sec.
The fluorescence anisotropy of the fluorescein-conjugated version of HTHi (50 nM) titrated by wt and mutated IBD in the “assay buffer” was used to evaluate the Kd of the LEDGF-HTHi complex.

LEDGF-IBD (wt IBD) = biological target: T1, LEDGF-IBD (wt IBD) (Homo sapiens, UniProt O75475); experiment: Fluorescence anisotropy titration of fluorescein-grafted HTHi by wt LEDGF-IBD; assay type: binding; conditions: fluorescein-grafted HTHi 50 nM titrated by wt LEDGF-IBD; pH 6.0; 5°C
T1 construct: The wt IBD is the fragment 347–471 of LEDGF (GST removed); GST (cleaved yes)
T1 sequence (O75475 347-471): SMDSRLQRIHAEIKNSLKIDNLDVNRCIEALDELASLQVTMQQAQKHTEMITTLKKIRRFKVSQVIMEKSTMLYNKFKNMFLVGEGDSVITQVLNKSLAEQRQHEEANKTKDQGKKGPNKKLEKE
Excerpt: (§1) Like the whole protein, these contain no Trp.

IN = conditions: ref [30]; cited from earlier work
Description: In a previous study, based on the intrinsic fluorescence properties of IN conferred by its six Trp residues, we have shown the ability of peptide INH5 (Table 1a) to interact with IN with a concentration midpoint (C0.5) of 168 nM [30]. […] There are examples in the literature showing that the so-called stabilizing helix of HTH motifs is involved in the protein dimerization. This is the case of topoisomerase II, in which the binding site to DNA is fashioned from the interaction of two HTH motifs. The implication of the α5 helix in the enzyme structure and activity has been highlighted in our previous report showing that peptide INH ...

wt IN [2] = conditions: intrinsic fluorescence of IN; similar conditions; ref [30]; cited from earlier work
Description: In a previous study, based on the intrinsic fluorescence properties of IN conferred by its six Trp residues, we have shown the ability of peptide INH5 (Table 1a) to interact with IN with a concentration midpoint (C0.5) of 168 nM [30].

viral DNA = experiment: Specific binding of peptide to viral DNA (general statement); design: species or system HIV-1; conditions: Discussion
[3] = biological target: CRE (cAMP response element); conditions: negative control sequence CRE; ref [43]; read-out: Kd (non-specific binding); cited from earlier work
Excerpt: The behavior of peptide HTHi is similar to that of peptide K156.

LTR34fm [4] = conditions: ref [43], cited from earlier work
Excerpt: (§2) In a previous work we pointed out the importance of the conformational entropy in the binding of the α4 helix to the viral DNA. In order to reduce this effect, we had designed an analog of the α4 peptide that had its secondary structure stabilized by helicogenic mutations (Gly149Ala, Ile161Leu, Ile162Leu and Gly163Ala). The resulting peptide, K156, was a good mimic of the α4 helix in the protein context and was better organized for binding than peptide α4.

LTR34f5′ [5] = conditions: LTR34f5′ vs LTR34fm; ref [43]; cited from earlier work
Excerpt: as §2

[6] = Circular dichroism of free peptide (secondary structure, oligomerisation); assay type: physicochemical
Excerpt: They were made according to the Fmoc procedure, as already reported for peptide α4, for its “stabilized” analogue i.e., peptide K156, and for the peptide INH5, derived from the α5 helix, [43]. Peptide α4 reproduces the α4 helix sequence of IN; peptide K156 is a variant of the α4 peptide resulting from the replacement of weakly helicogenic residues by more helicogenic ones in several biologically irrelevant positions; peptide INH5 contains both the α5 helix and the turn connecting the α5 helix to the α4 helix. The peptides HTHi and wt HTHi reproduce the sequences of the HTHi motifs in the IN-Phe185Lys variant and in wt IN respectively. A version of the HTHi peptide with a carboxyfluorescein at the N-terminus has also been prepared. Tyr or Trp aromatic residues, when absent in the native sequences, were purposely added in order to enable peptide quantification by UV absorption spectra. Peptide concentrations were determined using a molar absorption coefficient at 280 nm equal to 1 280 M^−1 cm^−1 for the tyrosine-containing peptides α4, INH5 and HTHi and 5600 M^−1 cm^−1 for the tryptophane-containing peptides K156 and […].
CD spectra were recorded on a Jobin-Yvon CD6 dichrograph (HORIBA Jobin-Yvon, France). Peptide concentrations varied from 5 to 25 µM in the “assay buffer”, containing 40 mM sodium phosphate, 0.5 mM EDTA, pH 6.0. The samples, incubated 10 min at the chosen temperature to allow the solutions to reach their equilibrium state, were placed in thermally jacketed cells with a 1 mm path length. The spectra, recorded in 1 nm steps, were averaged over ten scans and corrected for the base line, then presented as differential molar absorptivities per residue, Δε (M^−1 cm^−1), for peptides, and as difference spectra (complex minus DNA), for peptide-DNA complexes. For the HTHi-LTR interaction, aliquots of peptide were added to LTR34 (10 µM) and the control spectrum of unliganded LTR was subtracted from that of the complex. Recall that in a simple random coil – α helix equilibrium, the α-helix content of peptides could be approximated by the relation: Pα = −[Δε222×10] (Pα: percentage of α helix; Δε222: differential molar absorptivity per residue at 222 nm).

wt IN [7] = experiment: Quenching of the intrinsic fluorescence of wt IN by peptide; assay type: binding, HIV-1; conditions: wt IN 100 nM monomer; Trp fluorescence quenching, excitation 295 nm; 20 mM HEPES pH 6.8, 10 mM MgCl2, 10 mM DTT; 5°C
Description: as §1
The intrinsic fluorescence of wt IN was measured at 100 nM monomer concentration, in the “reaction buffer” (see above). The Trp residues were excited at 295 nm and emission was recorded between 305 and 450 nm, with 2 nm and 5 nm excitation and emission slit widths, respectively. A maximal emission was obtained at 337 nm. Quenching of the fluorescence of IN following the addition of HTHi or of peptide α4 (devoid of Trp) was expressed as 1-F/F0, where F0 is the fluorescence of the enzyme in the absence of peptide.

LTR34 = experiment: Circular dichroism of peptide-DNA complex (difference spectrum); assay type: binding, HIV-1; conditions: HTHi 6 µM + LTR34 10 µM, 40 mM sodium phosphate, 0.5 mM EDTA, pH 6.0
Excerpt: (§3) The oligonucleotides (Table 1b) were purchased from Cybergene ESGS (France) and Eurogentec (Belgium). The choice of monomolecular hairpin-forming oligonucleotides, rather than bimolecular duplex-forming ones, was motivated by the need for stability under the low concentrations inherent to the fluorescence anisotropy experiments. The fluorescein reporter group is grafted either to the central T nucleotide (LTR34fm) or to the 5′ extremity (LTR34f5′ and CRE). The CRE (cAMP responsive element) sequence was used as negative control. The version of LTR34 without fluorescein was used in CD studies.
CD spectra were recorded on a Jobin-Yvon CD6 dichrograph (HORIBA Jobin-Yvon, France). Peptide concentrations varied from 5 to 25 µM in the “assay buffer”, containing 40 mM sodium phosphate, 0.5 mM EDTA, pH 6.0. The samples, incubated 10 min at the chosen temperature to allow the solutions to reach their equilibrium state, were placed in thermally jacketed cells with a 1 mm path length. The spectra, recorded in 1 nm steps, were averaged over ten scans and corrected for the base line, then presented as differential molar absorptivities per residue, Δε (M^−1 cm^−1), for peptides, and as difference spectra (complex minus DNA), for peptide-DNA complexes. […]

[8] = biological target: CRE (cAMP response element); experiment: Fluorescence anisotropy titration of CRE (negative control sequence) by peptide; conditions: CRE 20 nM, curve fitting, ±10% uncertainty, 40 mM sodium phosphate, 0.5 mM EDTA, pH 6.0, 5°C, read-out: Kd (non-specific binding)
Excerpt: as §3
(§4) Fluorescence anisotropy titration, [75]. Fluorescein-labeled oligonucleotides were used at 20 nM in the “assay buffer” (see Table 1b and above). With fluorescein as fluorophore, excitation and emission were at 488 nm and 516 nm, with 4 nm and 5 nm slits, respectively. Peptides were added to DNA as successive aliquots. For each anisotropy measurement, the parallel [drawing 1] and the perpendicular [drawing 2] intensities of the background solution (i.e., buffer and protein contributions) were subtracted from those of the sample.

LTR34fm [9] = experiment: Fluorescence anisotropy titration of LTR34fm by peptide; assay type: binding, HIV-1; conditions: LTR34fm 20 nM, curve fitting, ±10% uncertainty, 40 mM sodium phosphate, 0.5 mM EDTA, pH 6.0, 5°C
Excerpt: as §3, §4

LTR34f5′ [10] = experiment: Fluorescence anisotropy titration of LTR34f5′ by peptide; assay type: binding, HIV-1
Excerpt: as §3, §4

Compound: CC[C@H](C)[C@H](NC(=O)[C@H](Cc1ccccc1)NC(=O)[C@@H](NC(=O)[C@H](C)NC(=O)[C@H](CCSC)NC(=O)[C@H](CCC(N)=O)NC(=O)[C@@H](NC(=O)[C@H](C)NC(=O)[C@@H](NC(=O)[C@H](CCCCN)NC(=O)[C@H](CC(C)C)NC(=O)[C@H](Cc1c[nH]cn1)NC(=O)[C@H](CCC(=O)O)NC(=O)[C@H](C)NC(=O)[C@H](CCC(N)=O)NC(=O)[C@H](CC(=O)O)NC(=O)[C@H](CCCNC(=N)N)NC(=O)[C@@H](NC(=O)[C@H](CCC(N)=O)NC(=O)CNC(=O)[C@@H](NC(=O)[C@@H](NC(=O)[C@H](CCCCN)NC(=O)[C@H](CCCCN)NC(=O)[C@H](CC(C)C)NC(=O)[C@H](CCC(=O)O)NC(=O)[C@H](CCCCN)NC(=O)[C@H](CC(N)=O)NC(=O)[C@H](CCSC)NC(=O)[C@H](CO)NC(=O)[C@H](CCC(=O)O)NC(=O)[C@@H](NC(=O)[C@@H](NC(=O)CNC(=O)[C@H](Cc1ccc(O)cc1)NC(=O)c1ccc2c(c1)C(=O)OC21c2ccc(O)cc2Oc2cc(O)ccc21)C(C)C)[C@@H](C)CC)[C@@H](C)CC)[C@@H](C)CC)C(C)C)[C@@H](C)O)C(C)C)C(C)C)C(=O)N[C@@H](Cc1c[nH]cn1)C(=O)N[C@@H](CC(N)=O)C(=O)N[C@@H](CCCCN)C(=O)N[C@@H](CCCCN)C(=O)N[C@@H](C)C(=O)O [fluorescein-grafted HTHi peptide]
- binding to Asp366Asn-IBD vs wt IBD [1]: only the wt IBD binds HTHi
- Hill number (LEDGF-IBD (wt IBD)): 11±3

Compound: DQ 168 AEHLKTAVQMAVFIHNY 185KA [INH5, peptide containing both the α5 helix and the turn connecting the α5 helix to the α4 helix]
- effect on IN (IN): caused the dissociation of the tetramers and dimers of IN; also recorded: inhibits IN by dissociating the IN dimers and tetramers
- concentration midpoint (C0.5) (wt IN [2]): 168 nM

Compound: SQA 149 KLEEMNK156ELKKLLAQVRAQ168 W
- affinity for viral DNA compared with HTHi (viral DNA; K156 vs HTHi): manifests a greater affinity for viral DNA than peptide HTHi
- Kd [3]: 16000 nM
- Kd (LTR34fm [4]; attachment site on the six outermost bases of viral DNA, read-out: Kd1 (high affinity site)): 2.1 nM
- Kd (LTR34fm [4]; non-specific binding, read-out: Kd2 (low affinity site)): 54000 nM
- effect of fluorescein at the 5′ extremity on binding modes (LTR34f5′ [5]): suppressed the high affinity binding mode of K156 but preserved the low affinity mode

Compound: SQG149VIESMNK156ELKKIIGQVRDQ 168 AEHLKTAVQMAVWIHNF185K [wt HTHi]
- structure compared with that of the mutant bi-helix ([6]; experiments not shown, method not stated): the structure of the wt bi-helix was similar to that of the mutant

Compound: SQG149VVESMNK156ELKKIIGQVRY [α4]
- DNA binding (in words) (viral DNA; isolated peptide, no value): very poor DNA binder; also recorded: completely unable to specifically bind the viral DNA
- conformation of isolated peptide ([6]; stated in Discussion): mostly displays random conformation
- midpoint of titration curve (C0.5) (wt IN [7]): 53 ± 5 nM

Compound: YG149VIESMNK156ELKKIIGQVRDQ 168 AEHLKTAVQMAVFIHNK 185KA [HTHi]
- change of helical content on binding LTR34 (LTR34): practically doubles its helical content when binding to LTR34
- Kd [8]: 6600 nM
- helix content compared with component peptides α4 and INH5 ([6]; CD, spectra of α4 from ref [43] and of INH5 from ref [30]): helix content of HTHi is greater than that of peptides α4 [43] and INH5 [30]
- propensity to form oligomers in solution ([6]; high peptide concentration, CD, pH 6.0): propensity of HTHi to form oligomers in solution at high concentration
- helical content ([6]; peptide 6 µM, 40 mM sodium phosphate, 0.5 mM EDTA, pH 6.0, 1 mm path length): 10–15%
- helical content (in words) ([6]; peptide 25 µM, 40 mM sodium phosphate, 0.5 mM EDTA, pH 6.0): weak amount of helix
- midpoint of titration curve (C0.5) (wt IN [7]): 104 ± 8 nM
- Kd (LTR34fm [9]; read-out: Kd1 (high affinity site)): 50 nM
- Kd (LTR34fm [9]; read-out: Kd2 (low affinity, non-specific site)): 1900 nM
- Kd (LTR34f5′ [10]; LTR34f5′ 20 nM, monophasic, fluorescence anisotropy, curve fitting, ±10% uncertainty, 40 mM sodium phosphate, 0.5 mM EDTA, pH 6.0, 5°C): 2900 nM
- effect of fluorescein at the 5′ extremity on high affinity binding (LTR34f5′ [10]; LTR34f5′ vs LTR34fm): The high affinity is abolished
